Test results published in PMC11876601 (Molecular Systems Biology, 2025).
Values joined by “and” are separate entries in the source; they are usually repeats but may differ in a detail not shown here. Equal entries are not always repeated. Where two headings read alike, the source gives them in different places.

What was measured:
PIK3C2A = PIK3C2A (Homo sapiens, UniProt O00443); test: biochemical
Method: This was followed by incubation with Kinobeads ε (17.5 µl of settled beads) for 30 min at 4 °C to enrich kinases. […] Enriched proteins were reduced with 50 mM DTT in 8 M urea, 40 mM Tris-HCl, pH 7.4 for 30 min at room temperature, and alkylated with 55 mM chloroacetamide. After reducing the urea concentration to 1–2 M, proteins were digested with trypsin at 37 °C for 16 h. Subsequently, eluted peptides were desalted using SepPak tC18 µElution plates (Waters), freeze-dried by vacuum centrifugation, and stored at −20 °C.
For LC-MS/MS, dried peptides were reconstituted in 0.1% formic acid and analyzed on a Dionex Ultimate3000 nano HPLC (Thermo Scientific) coupled to an Orbitrap Fusion Tribrid mass spectrometer (Thermo Scientific), which was run in data-dependent mode. […]
Oxidized methionine and N-terminal acetylation were set as variable modification, and cysteine carbamidomethylation was set as fixed modification. Label-free quantification (LFQ) and match-between-runs were enabled. […]
Proteins were filtered by potential contaminants, reversed hits and proteins identified only by site. Residual binding of proteins was calculated from LFQ intensities as the ratio between drug doses and vehicle. […] Only kinases quantified with at least 4 unique peptides in the vehicle experiment were considered. […]

PDO UME051 = test: PDO viability assay (CellTiter-Glo, 72 h); type: cell-based, human; parameters: Curve bottom: scale not given here;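 as to Curve top: fraction of plate-wise median vehicle signal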
Method: Primary patient-derived PDAC organoid (PDO) experiments were performed in the laboratories of Prof. Maximilian Reichert (University Hospital of the TU Munich, Germany, PDO set 1: B250, B535, B678) and Prof. Jens T. Siveke (University Hospital Essen, Germany; PDO set 2: UME008, UME012, UME051, UME053, UME060, UME061). PDOs were generated from surgical resection, EUS-guided fine needle biopsy (EUS-FNB), or ascites (Appendix Table S2). Surgical specimens were first minced with a sterile scalpel and subsequently washed with Anti-Anti solution and washing medium (PDO set 1), or vice versa (PDO set 2; Appendix Table S3). Biopsy samples were directly washed with an Anti-Anti solution and washing medium. Samples were digested using 1 ml of digestion medium at 37 °C while shaking, and the enzymatic reaction was stopped by adding 15 ml of washing medium (Appendix Table S3). If samples of PDO set 1 were blood-stained, tissue pellets were first incubated with ACK lysing buffer/red blood cells lysis buffer (Thermo Fisher Scientific) for 5 min and then digested using TrypLE (Thermo Fisher Scientific). The reversed procedure was applied for blood-stained samples of PDO set 2. For PDO generation from ascites, the material was first spun down at 500 × g for 5 min. Then, washing medium was added and the suspension was centrifuged at 300 × g for 5 min. If the pellet was blood-stained, ACK lysis buffer was added and incubated at room temperature.
For viability assays in PDOs, confluent organoids were removed from medium, and Matrigel was dissolved by adding 200 μl (PDO set 1) or 2 ml (PDO set 2) of Cell Recovery Solution (Corning), and additionally 500 μl of DPBS (PDO set 1 only). Samples were transferred into a falcon and incubated on ice for 30 min, followed by centrifugation at 300 × g at 4 °C for 5 min (after adding 10 ml washing medium for PDO set 2). Subsequently, TrypLE Express Enzyme (Thermo Fisher) was added to cell pellets and incubated for 2 × 5 min at 37 °C. The enzymatic reaction was quenched by DPBS (PDO set 1) or washing medium (PDO set 2), and samples were washed by centrifugation at 300 × g at 4 °C for 5 min. Five hundred cells/well were seeded in 384-well plates (Corning) in 50 μl of PDO medium containing 10% Matrigel. To allow PDO generation, cells were incubated for 4 days at 37 °C and 5% CO2. […] Experiments were pipetted manually (PDO set 1) or automatically using a TECAN D300e Digital Dispenser (HP; PDO set 2). Treatments were performed in eight replicates, except for PDO PPES045 (quadruplicates). After 72 h, cell viability was measured using the CellTiter-Glo Luminescent Cell Viability Assay (Promega) diluted 1:5 in the final volume of the well. After 20 min of incubation at room temperature under gentle shaking, the acquisition was performed in the microplate reader VantaSTAR (BMG Labtech) using 3000 gain for the amplification measurement of a detected signal (PDO set 1) or the Spark Multimode microplate reader (TECAN) at 800 ms integration time (PDO set 2).

LOC102724428;SIK1 = tested on: LOC102724428;SIK1; parameters: method as in Reinecke et al. (2023); settings: LOC102724428;SIK1, 5 cell line mix lysate, Kinobeads ε, ref Reinecke et al. (2023), cited from earlier work
MAPK9 = tested on: MAPK9; parameters: method as in Reinecke et al. (2023); settings: MAPK9, 5 cell line mix lysate, Kinobeads ε, ref Reinecke et al. (2023), cited from earlier work
PTK6 = tested on: PTK6; parameters: method as in Reinecke et al. (2023); settings: PTK6, 5 cell line mix lysate, Kinobeads ε, ref Reinecke et al. (2023), cited from earlier work
[1] = PDO UME051, GEM + Elimusertib (ATRi) dose1, per replicate
[2] = PDO UME051, GEM + Elimusertib (ATRi) dose2, per replicate
[3] = PDO UME051, GEM + Elimusertib (ATRi) dose3, per replicate
[4] = PDO UME051, GEM alone, per replicate

Sequence of PIK3C2A (O00443 whole entry): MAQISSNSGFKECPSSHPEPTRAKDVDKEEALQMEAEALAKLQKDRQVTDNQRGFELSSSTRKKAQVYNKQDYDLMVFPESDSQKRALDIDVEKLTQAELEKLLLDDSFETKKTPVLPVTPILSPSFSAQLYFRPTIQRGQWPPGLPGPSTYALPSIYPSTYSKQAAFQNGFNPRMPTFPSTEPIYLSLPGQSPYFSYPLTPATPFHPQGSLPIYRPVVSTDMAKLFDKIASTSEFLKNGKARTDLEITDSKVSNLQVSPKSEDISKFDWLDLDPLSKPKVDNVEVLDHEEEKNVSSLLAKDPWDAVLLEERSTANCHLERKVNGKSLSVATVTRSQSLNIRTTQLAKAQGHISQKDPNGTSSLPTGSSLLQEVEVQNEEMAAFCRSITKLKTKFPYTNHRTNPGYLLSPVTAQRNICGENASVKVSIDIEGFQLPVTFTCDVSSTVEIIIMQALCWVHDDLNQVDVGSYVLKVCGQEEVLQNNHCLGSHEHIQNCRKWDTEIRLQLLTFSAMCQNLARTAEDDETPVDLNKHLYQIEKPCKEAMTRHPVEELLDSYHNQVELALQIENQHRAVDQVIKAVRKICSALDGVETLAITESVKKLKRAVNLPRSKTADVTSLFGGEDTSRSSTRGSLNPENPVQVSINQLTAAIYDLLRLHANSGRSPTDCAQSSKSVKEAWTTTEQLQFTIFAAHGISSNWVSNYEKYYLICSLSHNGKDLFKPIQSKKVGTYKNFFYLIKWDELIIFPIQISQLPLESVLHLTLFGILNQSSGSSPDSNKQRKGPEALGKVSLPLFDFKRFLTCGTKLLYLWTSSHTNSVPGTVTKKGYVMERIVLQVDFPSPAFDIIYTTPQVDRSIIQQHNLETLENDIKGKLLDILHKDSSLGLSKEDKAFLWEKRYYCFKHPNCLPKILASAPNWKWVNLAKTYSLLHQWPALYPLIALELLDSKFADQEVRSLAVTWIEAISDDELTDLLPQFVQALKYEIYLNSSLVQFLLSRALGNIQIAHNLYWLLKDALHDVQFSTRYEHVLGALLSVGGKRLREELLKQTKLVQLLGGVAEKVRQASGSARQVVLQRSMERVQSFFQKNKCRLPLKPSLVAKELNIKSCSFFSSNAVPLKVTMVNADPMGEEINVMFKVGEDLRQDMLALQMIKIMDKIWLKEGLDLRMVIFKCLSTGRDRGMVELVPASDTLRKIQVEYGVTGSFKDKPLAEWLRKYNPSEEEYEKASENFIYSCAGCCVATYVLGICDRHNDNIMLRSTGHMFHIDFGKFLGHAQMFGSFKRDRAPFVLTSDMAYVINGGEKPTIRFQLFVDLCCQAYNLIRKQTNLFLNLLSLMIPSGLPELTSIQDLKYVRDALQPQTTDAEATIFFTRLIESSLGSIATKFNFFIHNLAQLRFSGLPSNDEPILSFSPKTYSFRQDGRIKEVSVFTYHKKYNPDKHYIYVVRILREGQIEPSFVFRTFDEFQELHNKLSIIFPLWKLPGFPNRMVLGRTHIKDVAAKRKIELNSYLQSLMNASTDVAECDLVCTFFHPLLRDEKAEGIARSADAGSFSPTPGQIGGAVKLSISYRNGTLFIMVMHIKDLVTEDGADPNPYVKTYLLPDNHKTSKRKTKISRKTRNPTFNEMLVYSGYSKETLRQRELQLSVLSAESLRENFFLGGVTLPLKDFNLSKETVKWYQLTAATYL

C[C@@H]1COCCN1c1cc(-c2ccnn2C)c2ccnc(-c3ccn[nH]3)c2n1 [Elimusertib]
EC50 (PIK3C2A): 936 nM | Kd (PIK3C2A; KDapp, AsPC-1 lysate): 426 nM

Nc1ccn([C@@H]2O[C@H](CO)[C@@H](O)C2(F)F)c(=O)n1 [GEM, Gemcitabine]
EC50 (PDO UME051; Homo sapiens, PDO UME051, GEM + Elimusertib (ATRi) dose1, mean of replicates, read-out: EC50 mean): 34.9 nM | EC50 (PDO UME051; Homo sapiens, PDO UME051, GEM + Elimusertib (ATRi) dose2, mean of replicates, read-out: EC50 mean): 15.3 nM | EC50 (PDO UME051; Homo sapiens, PDO UME051, GEM + Elimusertib (ATRi) dose3, mean of replicates, read-out: EC50 mean): 8.3 nM | EC50 (PDO UME051; Homo sapiens, PDO UME051, GEM alone, mean of replicates, read-out: EC50 mean): 33.8 nM | EC50 (PDO UME051; Homo sapiens, PDO UME051, GEM alone, read-out: EC50 mean): 33.8 nM | Curve bottom (PDO UME051; [1]): 61.54 and 16.58 and 29.10 and 61.40 and 25.59 and 36.68 and 21.39 and 27.20 | Curve slope (PDO UME051; [1]): 0.20 and 0.21 and 0.19 and 0.27 and 0.15 and 0.25 and 0.16 | Curve top (PDO UME051; [1]): 1.01 and 0.92 and 0.96 and 0.94 and 1.28 and 1.37 | pEC50 (PDO UME051; [1]): 7.21 and 7.78 and 7.54 and 7.59 and 7.44 and 7.67 and 7.57 | EC50 (PDO UME051; PDO UME051, GEM + Elimusertib (ATRi) dose1, per replicate, read-out: EC50): 61.5 nM and 16.6 nM and 29.1 nM and 61.4 nM and 25.6 nM and 36.7 nM and 21.4 nM and 27.2 nM | Curve bottom (PDO UME051; [2]): 15.70 and 19.38 and 5.56 and 12.34 and 19.98 and 22.85 and 24.50 and 1.89 | Curve slope (PDO UME051; [2]): 0.23 and 0.20 and 0.22 and 0.26 and 0.21 and 0.14 and 0.30 | Curve top (PDO UME051; [2]): 1.02 and 0.95 and 0.89 and 1.03 | Curve bottom (PDO UME051; [3]): 6.82 and 3.16 and 19.99 and 13.79 and 5.24 and 6.23 and 5.82 and 5.38 | Curve slope (PDO UME051; [3]): 0.26 and 0.20 and 0.24 and 0.23 and 0.30 and 0.15 and 0.16 | Curve top (PDO UME051; [3]): 0.75 and 0.88 and 1.32 and 1.31 and 0.95 and 0.93 | pEC50 (PDO UME051; [3]): 8.17 and 8.50 and 7.70 and 7.86 and 8.28 and 8.21 and 8.24 and 8.27 | EC50 (PDO UME051; PDO UME051, GEM + Elimusertib (ATRi) dose3, per replicate, read-out: EC50): 6.82 nM and 3.16 nM and 20 nM and 13.8 nM and 5.24 nM and 6.23 nM and 5.82 nM and 5.38 nM | Curve bottom (PDO UME051; [4]): 27.81 and 28.79 and 47.23 and 24.70 and 49.88 and 54.38 and 18.12 and 19.12 | Curve slope (PDO UME051; [4]): 0.26 and 0.29 and 0.22 and 0.35 and 0.23 and 0.21 and 0.27 and 0.19 | Curve top (PDO UME051; [4]): 1.27 and 0.99 and 0.93 and 0.97 | pEC50 (PDO UME051; [4]): 7.56 and 7.54 and 7.33 and 7.61 and 7.30 and 7.26 and 7.74 and 7.72 | EC50 (PDO UME051; PDO UME051, GEM alone, per replicate, read-out: EC50): 27.8 nM and 28.8 nM and 47.2 nM and 24.7 nM and 49.9 nM and 54.4 nM and 18.1 nM and 19.1 nM

COc1cc(N2CCC(N3CCN(C)CC3)CC2)ccc1Nc1ncc(Cl)c(Nc2ccccc2P(C)(C)=O)n1 [Brigatinib]
EC50 (LOC102724428;SIK1): 106 nM | pKDapp (LOC102724428;SIK1): 6.98 | Kd (LOC102724428;SIK1; read-out: KDapp): 106 nM | EC50 (MAPK9): 2110 nM | pKDapp (MAPK9): 5.83 | Kd (MAPK9; read-out: KDapp): 1480 nM | EC50 (PTK6): 85.9 nM | pKDapp (PTK6): 7.38 | Kd (PTK6; read-out: KDapp): 41.5 nM
